The values below come from ChEMBL document CHEMBL1857833, “Screening and optimization of specific chemical series against human African Trypanosomiasis (HAT)”.

Series [1] can be described thus: DNDI: Cytotoxicity against L929 mouse fibroblasts, 72 hour. In kind it is toxicity, cell-based. As to conditions: mouse, L929 mouse fibroblasts.
The subject of series [2] is Trypanosoma brucei. Description: DNDI: Inhibition of Human African Trypanosomiasis, SBRI 427, in vitro. In kind it is functional, organism-based.
The nature of series [3]: DNDI: Cytotoxicity against L929 mouse fibroblasts, CYTO-SP, 24 hour. The note with it: mouse, L929 mouse fibroblasts. Type of series: toxicity, cell-based.
Where [4] appears, read: Trypanosoma brucei, SBRI 427, read-out: IC50.

Converted amounts (≈) assume the structure as drawn. “And” between values parts separate entries of the source, which are not always exact repeats. Equal entries are not always repeated. Bounds are passed on as bounds.

In general, IC50 refers to the point on the concentration scale where inhibition reaches its midpoint. For the compound `CCCCCC(C)NCc1coc(-c2ccccc2O)n1` (stereo not drawn), the IC50 at 72 h in series [1] is 7.32 µg/mL (≈ 25.4 µM). For the same compound, the IC50 in series [2] (setting [4]) turned out to be 3.56 µg/mL (≈ 12.3 µM). Moreover, the concentration for half-maximal inhibition (IC50) at 24 h in series [3] is 24 µg/mL (≈ 83.2 µM).

Compound `CCCCCC(C)NCc1coc(-c2cccc(F)c2)n1` (stereo not drawn) had an IC50 at 72 h in series [1] of 7.19 µg/mL (≈ 24.8 µM). Besides, the half-maximal inhibitory concentration (IC50) in series [2] (setting [4]) amounted to 2.14 µg/mL (≈ 7.37 µM). The compound further yielded an IC50 at 24 h in series [3] of 19 µg/mL (≈ 65.4 µM).

`CCCOc1ccc(-c2nc(CNC3CCCCCC3)co2)cc1` yielded an IC50 at 72 h in series [1] of less than 3.13 µg/mL. Moreover, the IC50 in series [2] (setting [4]) was 1.25 µg/mL (≈ 3.81 µM). Also, half-maximal inhibition in series [3] (IC50 at 24 h) required 15.8 µg/mL (≈ 48.1 µM).

`CCCCCC(C)NCc1ccccc1-c1ccccc1` (stereo not drawn) came in with an IC50 at 72 h in series [1] of 4.68 µg/mL (≈ 16.6 µM). The 50% inhibitory concentration (IC50) in series [2] (setting [4]) was determined as 1.35 µg/mL (≈ 4.8 µM). The same compound had a concentration for half-maximal inhibition (IC50) at 24 h in series [3] greater than 50 µg/mL.

The compound `CCOc1ccc(-c2nc(CNC3C[C@@H]4C[C@H]([C@@H]3C)C4(C)C)co2)cc1` (stereo partly drawn) registered an IC50 at 72 h in series [1] of 3.64 µg/mL (≈ 10.3 µM). Moreover, the IC50 in series [2] (setting [4]) is greater than 5 µg/mL. The compound further had an IC50 at 24 h in series [3] greater than 50 µg/mL.

The compound `CCOc1ccc(-c2nc(CCl)co2)cc1` had a half-maximal inhibitory concentration (IC50) at 72 h in series [1] of 25.9 µg/mL (≈ 109 µM). For the same compound, the IC50 in series [2] (setting [4]) was 2.19 µg/mL (≈ 9.21 µM). In addition, the IC50 at 24 h in series [3] was greater than 5 µg/mL.

For the compound `CSc1ccccc1Oc1ncccc1/C(=N/O)NCC1CC1`, the 50% inhibitory concentration (IC50) in series [2] is 0.53 µg/mL and < 0.19 µg/mL. The half-maximal inhibitory concentration (IC50) at 24 h in series [3] was greater than 50 µg/mL.

In series [1], `CCCCCC(C)NCc1coc(-c2cccc(OC(F)(F)F)c2)n1` (stereo not drawn) gave an IC50 at 72 h of 6.48 µg/mL (≈ 18.2 µM). Also, the IC50 in series [2] (setting [4]) turned out to be 1.45 µg/mL (≈ 4.07 µM). In addition, the IC50 at 24 h in series [3] is greater than 50 µg/mL.

As to `COc1ccccc1/C(N)=N/O`, the 50% inhibitory concentration (IC50) in series [2] (setting [4]) is greater than 5 µg/mL. In series [3], this compound returned an IC50 at 24 h greater than 50 µg/mL.

Consider `COc1ccccc1-c1noc(C(C)C)n1`, for which the concentration for half-maximal inhibition (IC50) in series [2] (setting [4]) is greater than 5 µg/mL. Also, in series [3], the IC50 at 24 h was greater than 50 µg/mL.

In turn, `CCCC(CCC)NCc1coc(-c2ccc(OCC)cc2)n1` gave a half-maximal inhibitory concentration (IC50) at 72 h in series [1] of 6.37 µg/mL (≈ 20.1 µM). Besides, the IC50 at 24 h in series [3] is greater than 50 µg/mL.

Take `CC1CCCC(NCc2coc(-c3ccccc3Br)n2)C1C` (stereo not drawn): the concentration for half-maximal inhibition (IC50) in series [2] is 2.06 µg/mL and 0.92 µg/mL. This compound showed an IC50 at 24 h in series [3] greater than 50 µg/mL.

For `CCCNC/C(=N\O)c1ccc(OC)cc1`, in series [2] (setting [4]), the IC50 was greater than 5 µg/mL. This compound showed a half-inhibitory concentration (IC50) at 24 h in series [3] greater than 50 µg/mL.

Compound `CCCCCC(C)NCc1coc(-c2ccc3ccccc3c2)n1` (stereo not drawn) gave an IC50 at 72 h in series [1] of 5.65 µg/mL (≈ 17.5 µM). Besides, in series [2] (setting [4]), the half-inhibitory concentration (IC50) came out at 1.09 µg/mL (≈ 3.38 µM). The compound also showed an IC50 at 24 h in series [3] of 17 µg/mL (≈ 52.7 µM).

For the compound `COc1cccc(/C(=N/O)N(C(=O)C(C)C)C(=O)C(C)C)c1`, the IC50 in series [2] (setting [4]) was greater than 5 µg/mL. In series [3], this compound registered an IC50 at 24 h greater than 50 µg/mL.

As to `CCCCCC(C)NCc1nc(-c2ccccc2)no1` (stereo not drawn), the IC50 at 72 h in series [1] worked out at 30.8 µg/mL (≈ 113 µM). For the same compound, the IC50 in series [2] (setting [4]) was greater than 5 µg/mL. The same compound returned a half-maximal inhibitory concentration (IC50) at 24 h in series [3] of 50 µg/mL (≈ 183 µM).

The compound `CCOc1ccc(-c2nc(CN(C)Cc3coc(-c4ccc(OCC)cc4)n3)co2)cc1` returned a half-inhibitory concentration (IC50) at 72 h in series [1] greater than 50 µg/mL. In addition, in series [2] (setting [4]), the 50% inhibitory concentration (IC50) is greater than 5 µg/mL. In series [3], this compound gave an IC50 at 24 h greater than 50 µg/mL.

`CCCCCC(C)NCc1noc(-c2ccccc2)n1` (stereo not drawn) came in with an IC50 at 72 h in series [1] of 30.7 µg/mL (≈ 112 µM). Further, the IC50 in series [2] (setting [4]) was greater than 5 µg/mL. This compound had an IC50 at 24 h in series [3] of 50 µg/mL (≈ 183 µM).

As for `CCCCc1ccc(-c2nc(C)co2)cc1`, the half-maximal inhibitory concentration (IC50) at 72 h in series [1] is 42.1 µg/mL (≈ 195 µM). For the same compound, the 50% inhibitory concentration (IC50) in series [2] (setting [4]) was greater than 5 µg/mL. The same compound showed an IC50 at 24 h in series [3] greater than 50 µg/mL.

Turning to `CCCCCC(C)NCc1csc(-c2ccccc2)n1` (stereo not drawn), in series [1], the concentration for half-maximal inhibition (IC50) at 72 h is 4.45 µg/mL (≈ 15.4 µM). In addition, the IC50 in series [2] (setting [4]) amounted to 2.64 µg/mL (≈ 9.15 µM). This compound also had an IC50 at 24 h in series [3] of 18 µg/mL (≈ 62.4 µM).

In series [1], `CCCOc1ccc(-c2nc(CNC3[C@H]4C[C@@H]5C[C@@H](C[C@H]3C5)C4)co2)cc1` (stereo partly drawn) showed a concentration for half-maximal inhibition (IC50) at 72 h of 3.67 µg/mL (≈ 10 µM). Further, the IC50 in series [2] (setting [4]) is 0.69 µg/mL (≈ 1.88 µM). For the same compound, in series [3], the concentration for half-maximal inhibition (IC50) at 24 h was greater than 50 µg/mL.

For the compound `CON(C)C(=O)c1ccccc1-c1ccccc1`, the IC50 in series [2] (setting [4]) is greater than 5 µg/mL. Moreover, the concentration for half-maximal inhibition (IC50) at 24 h in series [3] was greater than 50 µg/mL.

Regarding `CCOc1ccc(-c2nc(CNCc3ccccc3)co2)cc1`, the IC50 at 72 h in series [1] came to 18.1 µg/mL (≈ 58.6 µM). Further, in series [2] (setting [4]), the IC50 is greater than 5 µg/mL. The compound further yielded an IC50 at 24 h in series [3] greater than 50 µg/mL.

As for `CCCCCC(C)NCc1coc(-c2ccccc2Cl)n1` (stereo not drawn), in series [1], the IC50 at 72 h was determined as 7.17 µg/mL (≈ 23.4 µM). Moreover, the IC50 in series [2] (setting [4]) came out at 2.42 µg/mL (≈ 7.89 µM). This compound also registered a 50% inhibitory concentration (IC50) at 24 h in series [3] of 17 µg/mL (≈ 55.4 µM).

In turn, `CCCCCC(C)NCc1cc(-c2ccccc2)on1` (stereo not drawn) had an IC50 at 72 h in series [1] of 12.9 µg/mL (≈ 47.3 µM). In addition, the IC50 in series [2] (setting [4]) came out at 5 µg/mL (≈ 18.4 µM). It took 32 µg/mL (≈ 117 µM) to reach half-maximal inhibition in series [3] (IC50 at 24 h).

In series [1], `CCCCc1ccc(-c2nc(-c3ccccc3)co2)cc1` had a concentration for half-maximal inhibition (IC50) at 72 h of 26.6 µg/mL (≈ 96 µM). In addition, in series [2] (setting [4]), the IC50 is greater than 5 µg/mL. In addition, the IC50 at 24 h in series [3] was greater than 50 µg/mL.

In series [1], `CCOc1ccc(-c2nc(CN[C@]34C[C@H]5C[C@H](C[C@H](C5)C3)C4)co2)cc1` displayed an IC50 at 72 h of 28.4 µg/mL (≈ 80.5 µM). For the same compound, the half-inhibitory concentration (IC50) in series [2] (setting [4]) was greater than 5 µg/mL. In series [3], this compound displayed an IC50 at 24 h greater than 50 µg/mL.

With `COc1ccc(/C(CO)=N/O)cc1`, in series [2] (setting [4]), the IC50 is greater than 5 µg/mL. Also, in series [3], the concentration for half-maximal inhibition (IC50) at 24 h was greater than 50 µg/mL.

On to `CCCCCC(C)NCc1coc(-c2ccc(C(F)(F)F)cc2)n1` (stereo not drawn), for which half-maximal inhibition in series [1] (IC50 at 72 h) required 3.55 µg/mL (≈ 10.4 µM). The concentration for half-maximal inhibition (IC50) in series [2] (setting [4]) was 1.63 µg/mL (≈ 4.79 µM). Besides, the IC50 at 24 h in series [3] was greater than 50 µg/mL.

The compound `CCCCCC(C)NCc1cc(-c2ccccc2)n(C)n1` (stereo not drawn) gave an IC50 at 72 h in series [1] of 12.8 µg/mL (≈ 45 µM). Besides, in series [2] (setting [4]), the IC50 was determined as 4.05 µg/mL (≈ 14.2 µM). In series [3], this compound returned an IC50 at 24 h of 50 µg/mL (≈ 175 µM).

For `COc1cccc(/C(N)=N/O)c1`, in series [2] (setting [4]), the IC50 is greater than 5 µg/mL. In series [3], the concentration for half-maximal inhibition (IC50) at 24 h is greater than 50 µg/mL.
